Measurements: PubChem BioAssay AID248 (DTP/NCI, 2004)
“And” between values parts separate entries of the source, which are not always exact repeats. Equal values may be shown once. Inconclusive results and toxic doses are left out.

System: L1210 leukemia ip in BDF1 mice, survival T/C
Experiment: NCI In Vivo Anticancer Drug Screen. Data for tumor model L1210 Leukemia (intraperitoneal) in B6D2F1 (BDF1) mice
Details: endpoint: mean survival time, higher = longer survival
Procedure, shortened: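 Tumor cells were implanted, animals were treated, and survival was followed. The result divides the treated measurement by the vehicle-control measurement.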

SMILES: O=NN(CCCl)C(=O)NC1CC2CCC1C2 (configuration not stated)
- T/C (dose: 1.04 mg/kg/injection, schedule: Q#B X Z (ip), vehicle: other): 96 % of control
- T/C (dose: 2.0 mg/kg/injection, schedule: Q01DX001 (ip), vehicle: carboxymethylcellulose (CMC)): 112 % of control
- T/C (dose: 3.1 mg/kg/injection, schedule: Q01DX015 (ip), vehicle: other): 114 % of control
- T/C (dose: 3.12 mg/kg/injection, schedule: Q03HX008 (oral), vehicle: carboxymethylcellulose (CMC)): 188 % of control
- T/C (dose: 3.12 mg/kg/injection, schedule: Q03HX024 (oral), vehicle: carboxymethylcellulose (CMC)): 261 % of control
- T/C (dose: 4.0 mg/kg/injection, schedule: Q01DX001 (ip), vehicle: carboxymethylcellulose (CMC)): 115 % of control
- T/C (dose: 4.9 mg/kg/injection, schedule: Q01DX015 (ip), vehicle: other): 210 % of control
- T/C (dose: 6.25 mg/kg/injection, schedule: Q01DX001 (im), vehicle: other): 112 % of control
- T/C (dose: 6.25 mg/kg/injection, schedule: Q01DX001 (ip), vehicle: other): 109 % of control and 118 % of control
- T/C (dose: 6.25 mg/kg/injection, schedule: Q01DX001 (ip), vehicle: saline): 98 % of control and 101 % of control
- T/C (dose: 6.25 mg/kg/injection, schedule: Q01DX001 (iv), vehicle: other): 105 % of control
- T/C (dose: 6.25 mg/kg/injection, schedule: Q01DX001 (oral), vehicle: other): 100 % of control
- T/C (dose: 6.25 mg/kg/injection, schedule: Q01DX001 (sc), vehicle: other): 114 % of control
- T/C (dose: 6.25 mg/kg/injection, schedule: Q03DX Z (ip), vehicle: other): 156 % of control
- T/C (dose: 6.25 mg/kg/injection, schedule: Q03HX008 (oral), vehicle: carboxymethylcellulose (CMC)): 188 % of control
- T/C (dose: 6.25 mg/kg/injection, schedule: Q07DX Z (ip), vehicle: other): 121 % of control
- T/C (dose: 8.0 mg/kg/injection, schedule: Q01DX001 (ip), vehicle: carboxymethylcellulose (CMC)): 124 % of control
- T/C (dose: 8.0 mg/kg/injection, schedule: Q01DX009 (ip), vehicle: carboxymethylcellulose (CMC)): 227 % of control
- T/C (dose: 8.0 mg/kg/injection, schedule: Q01DX009 (oral), vehicle: carboxymethylcellulose (CMC)): 227 % of control
- T/C (dose: 8.0 mg/kg/injection, schedule: Q04DX003 (ip), vehicle: carboxymethylcellulose (CMC)): 150 % of control
- T/C (dose: 8.33 mg/kg/injection, schedule: Q#B X Z (ip), vehicle: other): 105 % of control
- T/C (dose: 9.6 mg/kg/injection, schedule: Q## X032 (ip), vehicle: other): 150 % of control
- T/C (dose: 12.0 mg/kg/injection, schedule: Q01DX001 (ip), vehicle: carboxymethylcellulose (CMC)): 124 % of control
- T/C (dose: 12.5 mg/kg/injection, schedule: Q01DX001 (ip), vehicle: other): 150 % of control
- T/C (dose: 12.5 mg/kg/injection, schedule: Q01DX001 (ip), vehicle: saline): 103 % of control and 106 % of control
- T/C (dose: 12.5 mg/kg/injection, schedule: Q01DX001 (sc), vehicle: other): 151 % of control
- T/C (dose: 12.5 mg/kg/injection, schedule: Q03DX Z (ip), vehicle: other): 235 % of control
- T/C (dose: 12.5 mg/kg/injection, schedule: Q04DX003 (oral), vehicle: carboxymethylcellulose (CMC)): 177 % of control
- T/C (dose: 12.5 mg/kg/injection, schedule: Q07DX Z (ip), vehicle: other): 179 % of control
- T/C (dose: 14.5 mg/kg/injection, schedule: Q## X001 (ip), vehicle: other): 172 % of control
- T/C (dose: 15.0 mg/kg/injection, schedule: Q## X032 (ip), vehicle: other): 158 % of control
- T/C (dose: 16.0 mg/kg/injection, schedule: Q01DX001 (ip), vehicle: carboxymethylcellulose (CMC)): 179 % of control
- T/C (dose: 16.0 mg/kg/injection, schedule: Q01DX015 (ip), vehicle: other): 261 % of control
- T/C (dose: 16.0 mg/kg/injection, schedule: Q04DX003 (ip), vehicle: carboxymethylcellulose (CMC)): 193 % of control
- T/C (dose: 25.0 mg/kg/injection, schedule: Q01DX001 (im), vehicle: other): 214 % of control
- T/C (dose: 25.0 mg/kg/injection, schedule: Q01DX001 (ip), vehicle: carboxymethylcellulose (CMC)): 196 % of control
- T/C (dose: 25.0 mg/kg/injection, schedule: Q01DX001 (ip), vehicle: other): 220 % of control
- T/C (dose: 25.0 mg/kg/injection, schedule: Q01DX001 (oral), vehicle: other): 210 % of control
- T/C (dose: 25.0 mg/kg/injection, schedule: Q01DX001 (sc), vehicle: other): 227 % of control
- T/C (dose: 25.0 mg/kg/injection, schedule: Q03HX008 (ip), vehicle: carboxymethylcellulose (CMC)): 107 % of control
- T/C (dose: 25.0 mg/kg/injection, schedule: Q03HX008 (oral), vehicle: carboxymethylcellulose (CMC)): 155 % of control
- T/C (dose: 25.0 mg/kg/injection, schedule: Q03HX024 (oral), vehicle: carboxymethylcellulose (CMC)): 150 % of control
- T/C (dose: 25.0 mg/kg/injection, schedule: Q03HX040 (ip), vehicle: carboxymethylcellulose (CMC)): 114 % of control
- T/C (dose: 25.0 mg/kg/injection, schedule: Q04DX005 (ip), vehicle: carboxymethylcellulose (CMC)): 186 % of control
- T/C (dose: 26.0 mg/kg/injection, schedule: Q01DX001 (ip), vehicle: carboxymethylcellulose (CMC)): 162 % of control
- T/C (dose: 29.0 mg/kg/injection, schedule: Q01DX001 (ip), vehicle: other): 180 % of control and 240 % of control
- T/C (dose: 29.25 mg/kg/injection, schedule: Q01DX001 (oral), vehicle: other): 156 % of control and 160 % of control
